Entries after “also recorded” stand apart in the source; their conditions may differ.
Test system: animal model of form-deprivation myopia (FDM)
Experiment: form-deprivation myopia (FDM) model experiment on colorful guinea pigs
Details: for change value of ocular axial length: 0.05% eye drops once a day, after four weeks, compared with model control group; for body weight: during the experiment, among the groups
Description: An animal model of form-deprivation myopia (FDM) was prepared by using the monocular deprived (MD) method, i.e., covering one eye with an opaque eye patch to cause form-deprivation.
Models were established for each group of animals, and drugs were started on the first day of modeling. The model control group (FDM), positive control group (FDM+atropine), and bencycloquidium bromide group (FDM+the eye drops of bencycloquidium bromide) were given blank solvent, 0.05% atropine, and 0.05% eye drops of bencycloquidium bromide by instillation into the conjunctival sac, once a day, 20 L/eye, for a total of four weeks. Among them, the component of the blank solvent is water for injection; the components of 0.05% atropine using water for injection as solvent comprises 0.05% of atropine, 1.0% of polyvinyl alcohol, and 0.02% of benzalkonium chloride; and the osmotic pressure regulator is sodium chloride, and the osmolality of the eye drops is adjusted to 300 to 320 mOsmol/kg, and the pH regulator is phosphate buffer (NaH2PO4—Na2HPO4), which is used to adjust the pH value of the eye drops to 6.8.
The detection indicators were as follows: • (1) Animals are generally observed clinically once a day. • (2) Animal body weight is measured upon receipt, on the 7th and 14th days of quarantine, and twice a week after modeling. • (3) The anterior chamber depth, lens thickness, vitreous cavity depth and ocular axial length were checked before modeling and once a week after administration. • (4) The diopter was checked before modeling and once a week after administration.

Compound	change value of ocular axial length (guinea pig FDM model)	trend of diopter decline (guinea pig FDM model, 0.05% eye drops per day during four-week modeling period)	body weight (guinea pig FDM model)	preventive effect on myopia (guinea pig FDM myopia model)
C[N+]12CCC(CC1)C(OCC(O)(c1ccccc1)C1CCCC1)C2 (stereo not drawn) [bencycloquidium bromide]	significantly reduced; also recorded: significantly inhibit	significantly inhibit the trend of diopter decline	no significant difference in body weight	significant preventive effect
CN1[C@@H]2CC[C@H]1C[C@@H](OC(=O)C(CO)c1ccccc1)C2 (stereo partly drawn) [atropine]	significantly reduced		no significant difference in body weight	

Reference: US20260000654A1, “USE OF BENCYCLOQUIDIUM BROMIDE, ISOMER THEREOF AND DERIVATIVE THEREOF IN PREPARATION OF OPHTHALMIC FORMULATION” (Beijing Yingu Medicine Sci Techno Co., Ltd., priority 2023, published 2026)
